Measured values from patent publication US10221163B2 (priority 2015, dated 2019).
Where two headings read alike, the source gives them in different places.

Legend:
NDM-1 = NDM-1 (Klebsiella pneumoniae, UniProt C7C422); test: biochemical; format: biochemical; conditions: fluorescence assay, CCF2-FA substrate, 1 pM enzyme, 2 hours at 25° C.; read-out: NDM-1 IC50
Summary of the method: (§1)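 Inhibitor was mixed with the metallo-β-lactamase and CCF2-FA. After 2 hours at 25° C, fluorescence of the coumarin–fluorescein cephalosporin substrate was read. IC50 was calculated with a 4-parameter fit.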

IMP-1 = IMP-1 (Serratia marcescens, UniProt P52699); test: biochemical; format: biochemical; conditions: fluorescence assay, CCF2-FA substrate, 2 pM enzyme, 2 hours at 25° C.; read-out: IMP-1 IC50
Summary of the method: as §1

[1] = tested on: Pseudomonas aeruginosa MB9798 vs MB9799
Summary of the method: (§2)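 P. aeruginosa PAO1-derived IMP-1 strains, efflux+ MB9798 and efflux− MB9799, tested by standard microbroth MIC with imipenem and/or ceftazidime fixed, usually at CLSI breakpoint, plus fixed class A/C β-lactamase inhibitor against AmpC. Inhibitor titrated; concentration restoring susceptibility recorded; MB9798/MB9799 fold difference indicates efflux.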

[2] = tested on: Klebsiella pneumoniae expressing VIM-1 (IHMA599644); format: cell-based; conditions: for Klebsiella pneumoniae MITC95: VIM-1 strain IHMA599644, with imipenem 1 μg/ml, 95% inhibition of growth; for Klebsiella pneumoniae expressing VIM-1 (IHMA599644) MITC95: with imipenem 1 μg/ml, 95% inhibition of bacterial growth
Summary of the method: (§3)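 Clinical strains grown overnight on blood agar at 35°C, colonies suspended in saline, diluted 1:100 into 1.1×CAMHB. Test compound titrated with imipenem at 1 μg/ml; incubated 22–24 h at 35°C, growth read by absorbance.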

[3] = tested on: Serratia marcescens expressing IMP-1 (CL5741); format: cell-based; conditions: for Serratia marcescens MITC95: IMP-1 strain CL5741, with imipenem 1 μg/ml, 95% inhibition of growth; for Serratia marcescens expressing IMP-1 (CL5741) MITC95: with imipenem 1 μg/ml, 95% inhibition of bacterial growth
Summary of the method: as §3

[4] = tested on: Escherichia coli expressing NDM-1 (CLB30005, CLB30016); format: cell-based; conditions: with imipenem 1 μg/ml; for Escherichia coli MITC95: NDM-1 strain, 95% inhibition of growth; for Escherichia coli expressing NDM-1 (CLB30016) MITC95: 95% inhibition of bacterial growth
Summary of the method: as §3

[5] = tested on: Pseudomonas aeruginosa efflux− (MB9799), IMP-1; format: cell-based; conditions: C, D serine β-lactamase inhibitor closely related to relebactam; for P. aeruginosa expressing IMP-1, efflux − (MB9799) MITC95: concentration restoring susceptibility to imipenem at 2 μg/mL in the presence of a class A; for Concentration of metallo-β-lactamase inhibitor which restores susceptibility of efflux − (MB9799) strain to imipenem: imipenem at 2 μg/mL, in the presence of a class A
Summary of the method: as §2

VIM-1 = VIM-1 (Pseudomonas aeruginosa (strain ATCC 15692 / DSM 22644 / CIP 104116 / JCM 14847 / LMG 12228 / 1C / PRS 101 / PAO1), UniProt A0A0F7KYQ8); test: biochemical; conditions: CCF2-FA substrate, 30 pM enzyme, 2 hours at 25° C.
Summary of the method: as §1

[6] = tested on: Pseudomonas aeruginosa efflux+ (MB9798), IMP-1; format: cell-based; parameters: Concentration of metallo-β-lactamase inhibitor which restores susceptibility of efflux + (MB9798) strain to imipenem: unit not given here; conditions: C, D serine β-lactamase inhibitor closely related to relebactam; for P. aeruginosa expressing IMP-1, efflux + (MB9798) MITC95: concentration restoring susceptibility to imipenem at 2 μg/mL in the presence of a class A; for Concentration of metallo-β-lactamase inhibitor which restores susceptibility of efflux + (MB9798) strain to imipenem: imipenem at 2 μg/mL, in the presence of a class A
Summary of the method: as §2

[7] = ratio MITC95 PA_9798/MITC95 PA_9799
[8] = fluorescence assay, read-out: VIM-1 IC50
[9] = fold difference between efflux+ (MB9798) and efflux− (MB9799) strains, imipenem at 2 μg/mL

Sequence of IMP-1 (P52699 whole entry, looked up, species assumed): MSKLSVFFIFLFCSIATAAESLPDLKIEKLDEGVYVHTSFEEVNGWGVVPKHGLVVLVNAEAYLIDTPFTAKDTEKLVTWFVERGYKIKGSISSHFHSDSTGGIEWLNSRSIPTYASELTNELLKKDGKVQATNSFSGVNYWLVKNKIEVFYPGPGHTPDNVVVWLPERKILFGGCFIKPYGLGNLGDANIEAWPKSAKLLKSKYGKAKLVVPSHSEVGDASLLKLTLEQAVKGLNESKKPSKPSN
Sequence of NDM-1 (C7C422 whole entry, looked up, species assumed): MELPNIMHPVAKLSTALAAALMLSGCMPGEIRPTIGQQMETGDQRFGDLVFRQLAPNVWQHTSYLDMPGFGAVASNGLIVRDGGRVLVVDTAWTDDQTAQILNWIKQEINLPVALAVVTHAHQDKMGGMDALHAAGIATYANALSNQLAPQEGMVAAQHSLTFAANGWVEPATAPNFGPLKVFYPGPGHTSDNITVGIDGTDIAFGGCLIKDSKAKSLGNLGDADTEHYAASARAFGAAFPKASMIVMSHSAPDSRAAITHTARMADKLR

Row | SMILES | IC50 (NDM-1) | IC50 (IMP-1) | Efflux ratio [1, 7] | Klebsiella pneumoniae MITC95 [2] | Serratia marcescens MITC95 [3] | Escherichia coli MITC95 [4] | P. aeruginosa expressing IMP-1, efflux − (MB9799) MITC95 [5] | IC50 (VIM-1; [8]) | P. aeruginosa expressing IMP-1, efflux + (MB9798) MITC95 [6] | Efflux ratio [1, 9] | Concentration of metallo-β-lactamase inhibitor which restores susceptibility of efflux − (MB9799) strain to imipenem [5] | IC50 (VIM-1; VIM-1 IC50, fluorescence assay) | Concentration of metallo-β-lactamase inhibitor which restores susceptibility of efflux + (MB9798) strain to imipenem [6] | Klebsiella pneumoniae expressing VIM-1 (IHMA599644) MITC95 [2] | Serratia marcescens expressing IMP-1 (CL5741) MITC95 [3] | Escherichia coli expressing NDM-1 (CLB30016) MITC95 [4]
1 | CC[C@@H](CN)NS(=O)(=O)c1ccc(-c2cccc3[nH]c(N)nc23)c(-c2nn[nH]n2)c1S(N)(=O)=O [Example 264, (S)-4-(2-amino-1H-benzo[d]imidazol-4-yl)-N1-(1-aminobutan-2-yl)-3-(2H-tetrazol-5-yl)benzene-1,2-disulfonamide] | 0.2 nM | 5.93 nM | 4.00 | 1.563 µM | 1.563 µM | 0.7813 µM | 0.7813 µM | 0.47 nM | 3.125 µM | – | – | – | – | – | – | –
2 | Nc1nc(-c2cccc(-c3ccc(S(=O)(=O)N[C@@H]4CCNC4)c(S(N)(=O)=O)c3-c3nn[nH]n3)c2)c[nH]1 [Example 428] | 0.0473 nM | 0.407 nM | – | 1.563 µM | 0.7813 µM | 0.3906 µM | – | – | – | 1.00 | 0.7813 | 0.133 nM | 0.7813 | – | – | –
3 | Nc1ccc(-c2ccc(S(=O)(=O)NC[C@@H]3CCCN3)c(S(N)(=O)=O)c2-c2nn[nH]n2)cn1 [Example 488, (S)-4-(6-aminopyridin-3-yl)-N1-(pyrrolidin-2-ylmethyl)-3-(2H-tetrazol-5-yl)benzene-1,2-disulfonamide] | 0.206 nM | 0.355 nM | – | 1.563 µM | 0.1953 µM | 0.1953 µM | – | 0.21 nM | – | 1.00 | 0.7813 | – | 0.7813 | – | – | –
4 | CNS(=O)(=O)c1ccc(-c2cccc3sc(N)nc23)c(-c2nn[nH]n2)c1S(N)(=O)=O [Example 152, 4-(2-aminobezno[d]thiazol-4-yl)-N1-methyl-3-(2H-tetrazol-5-yl)benzene-1,2-disulfonamide] | 0.072 nM | 0.264 nM | 8.00 | – | – | – | 1.563 µM | 0.195 nM | 12.5 µM | – | – | – | – | 6.25 µM | 3.125 µM | 3.125 µM
5 | NCC(F)(F)c1nc2c(-c3ccc(S(=O)(=O)N[C@H]4CCNC4)c(S(N)(=O)=O)c3-c3nn[nH]n3)cccc2[nH]1 [Example 446, (S)-4-(2-(2-amino-1,1-difluoroethyl)-1H-benzo[d]imidazol-4-yl)-N1-(pyrrolidin-3-yl)-3-(2H-tetrazol-5-yl)benzene-1,2-disulfonamide] | 0.0569 nM | 0.446 nM | – | 3.125 µM | 3.125 µM | 1.563 µM | – | 0.153 nM | – | 2.00 | 1.563 | – | 3.125 | – | – | –
6 | NC[C@@H](CO)NS(=O)(=O)c1ccc(-c2ccnc(N)c2)c(-c2nn[nH]n2)c1S(N)(=O)=O [Example 380, (S)—N1-(1-amino-3-hydroxypropan-2-yl)-4-(2-aminopyridin-4-yl)-3-(2H -tetrazol-5-yl)benzene-1,2-disulfonamide] | 0.178 nM | 0.544 nM | 1.00 | 1.563 µM | 0.7813 µM | 0.4883 µM | 0.7813 µM | – | 0.7813 µM | – | – | 0.179 nM | – | – | – | –
7 | CS(=O)(=O)Nc1ccc(-c2ccc(S(=O)(=O)N[C@@H]3CCNC3)c(S(N)(=O)=O)c2-c2nnn[nH]2)cc1 [Example 136, (R)-4′-(methylsulfonamido)-N4-(pyrrolidin-3-yl)-2-(1H-tetrazol-5-yl)-[1,1′-biphenyl]-3,4-disulfonamide] | 0.0368 nM | 0.0755 nM | 2.00 | – | – | – | 0.7813 µM | 0.105 nM | 1.563 µM | – | – | – | – | 1.563 µM | 3.125 µM | 1.563 µM
8 | Nc1nc2c(-c3ccc(S(=O)(=O)N4CC5CC4CS5(=O)=O)c(S(N)(=O)=O)c3-c3nnn[nH]3)cccc2s1 (stereo not drawn) [Example 40, 3-(2-amino-1,3-benzothiazol-4-yl)-6-[(2,2-dioxido-2-thia-5-azabicyclo[2.2.1]hept-5-yl)sulfonyl]-2-(1H-tetrazol-5-yl)benzenesulfonamide] | 1.7 nM | 1.86 nM | 16.00 | – | – | – | 3.125 µM | – | 50 µM | – | – | 2.66 nM | – | 25 µM | 6.25 µM | 25 µM
9 | CO[C@H]1CNC[C@@H]1NS(=O)(=O)c1ccc(-c2cccc3sc(N)nc23)c(-c2nnn[nH]2)c1S(N)(=O)=O.O=C(O)C(F)(F)F [Example 108, (3S,4S)-3-(4-(2-aminobenzo[d]thiazol-4-yl)-2-sulfamoyl-3-(1H-tetrazol-5-yl)phenylsulfonamido)-4-methoxypyrrolidin-1-ium 2,2,2-trifluoroacetate] | 0.0512 nM | 0.336 nM | 1.00 | – | – | – | 1.563 µM | 0.268 nM | 1.563 µM | – | – | – | – | 3.125 µM | 3.125 µM | 1.563 µM
10 | Nc1ccc2cccc(-c3ccc(S(=O)(=O)N[C@@H]4CNC[C@@H]4N)c(S(N)(=O)=O)c3-c3nn[nH]n3)c2n1 [Example 319, N^1-((3R,4S)-4-aminopyrrolidin-3-yl)-4-(2-aminoquinolin-8-yl)-3-(2H-tetrazol-5-yl)benzene-1,2-disulfonamide] | 0.0483 nM | 0.265 nM | 1.00 | 1.563 µM | 1.563 µM | 1.563 µM | 0.7813 µM | 0.206 nM | 0.7813 µM | – | – | – | – | – | – | –
11 | Nc1nc2c(-c3ccc(S(=O)(=O)NC4CNC4)c(S(N)(=O)=O)c3-c3nn[nH]n3)cccc2s1 [Example 146, 4-(2-aminobenzo[d]thiazol-4-yl)-N1-(azetidin-3-yl)-3-(2H-tetrazol-5-yl)benzene-1,2-disulfonamide] | 0.0372 nM | 0.356 nM | 0.50 | – | – | – | 0.7813 µM | 0.224 nM | 0.3906 µM | – | – | – | – | 1.563 µM | 0.7813 µM | 3.125 µM
